Test results from PubChem BioAssay (NCI).
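Five compound concentrations were applied to cells in 96-well plates for 48 hours; endpoints were derived by simple linear interpolation of the resulting dose-response curve. TGI marks complete inhibition of growth.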 Where a SMILES comes first, the peptide text is derived from it. [ ]: non-standard residue; d: D form. The star is where a group is joined. ξ: configuration not given here. Propanoyl(3-(4-MeO-Ph)) = COc1ccc(CCC(=O)*)cc1; Thr(3ξ) = CC(O)[C@H](N)C(=O)O; dNMeL = CN[C@H](CC(C)C)C(=O)O; OBn = c1ccc(CO*)cc1; ξLac = CC(O)C(=O)O

Key:
Assay in all cases: growth of human tumour cells (NCI), 48 h
PC-3 prostate = tested on: PC-3 prostate
U251 CNS = tested on: U251 CNS
OVCAR-3 ovarian = tested on: OVCAR-3 ovarian
A498 renal = tested on: A498 renal
KM12 colon = tested on: KM12 colon
OVCAR-8 ovarian = tested on: OVCAR-8 ovarian
SF-295 CNS = tested on: SF-295 CNS
NCI-H23 lung = tested on: NCI-H23 lung
COLO 205 colon = tested on: COLO 205 colon
CAKI-1 renal = tested on: CAKI-1 renal

SMILES | TGI (PC-3 prostate) | TGI (U251 CNS) | TGI (OVCAR-3 ovarian) | TGI (A498 renal) | TGI (KM12 colon) | TGI (OVCAR-8 ovarian) | TGI (SF-295 CNS) | TGI (NCI-H23 lung) | TGI (COLO 205 colon) | TGI (CAKI-1 renal)
Cc1ccc(Nc2sc(C)cc2C#N)c([N+](=O)[O-])c1 | > 100 µM | > 100 µM | > 100 µM | > 100 µM | > 100 µM | > 100 µM | > 100 µM | > 100 µM | > 100 µM | > 100 µM
CC12CC3(O)OC(O1)C1(COC(=O)c4ccccc4)C3CC21OC1OC(CO)C(O)C(O)C1O (stereo not given) | > 100 µM | > 100 µM | > 100 µM | > 100 µM | > 100 µM | > 100 µM | > 100 µM | > 100 µM | > 100 µM | > 100 µM
O=c1[nH]c2ccc(CC(=S)N3CCN(c4ccccc4)CC3)cc2o1 | > 100 µM | > 100 µM | > 100 µM | > 100 µM | > 100 µM | > 100 µM | > 100 µM | > 100 µM | > 100 µM | > 100 µM
O=C(/C=C\Nc1ccccc1O)C(Cl)(Cl)Cl | > 100 µM | 81.8 µM | 43.1 µM | > 100 µM | > 100 µM | > 100 µM | 35.2 µM | > 100 µM | > 100 µM | > 100 µM
CCOC(=O)c1cc(=O)oc2c1N(C)c1ncccc1N2 | > 100 µM | > 100 µM | > 100 µM | > 100 µM | > 100 µM | > 100 µM | > 100 µM | > 100 µM | > 100 µM | > 100 µM
COc1cc(C2SCC(=O)N2c2ccc(Cl)cc2)cc(I)c1O (stereo not given) | > 100 µM | > 100 µM | > 100 µM | > 23.2 µM | > 100 µM | > 100 µM | > 100 µM | > 100 µM | > 23.7 µM | > 100 µM
COc1ccccc1N=N/C(=N/NC(=O)c1ccc(C)cc1)c1ccc(N(CCC#N)CCC#N)cc1OC | 71.2 µM | > 100 µM | > 100 µM | 55.8 µM | 84.4 µM | > 100 µM | > 100 µM | > 100 µM | 31.1 µM | > 100 µM
O=C(/C=C/c1cccs1)c1cccc(C(=O)/C=C/c2cccs2)n1 | > 100 µM | > 75.8 µM | > 100 µM | > 100 µM | > 66.3 µM | 19.6 µM | > 100 µM | > 90.6 µM | > 100 µM | > 100 µM
O=c1c(-c2ccccc2Cl)coc2cc(F)ccc12 | > 100 µM | 35.3 µM | > 100 µM | 47.2 µM | 71.8 µM | > 100 µM | 48.6 µM | > 100 µM | > 100 µM | > 100 µM
CC1=C(C(=O)Nc2ccccc2)C(c2ccc(C)o2)C(C#N)=C(SCc2ccccc2)N1 (stereo not given) | > 100 µM | > 100 µM | > 100 µM | > 100 µM | > 100 µM | > 100 µM | > 100 µM | > 100 µM | > 100 µM | > 100 µM
Cc1ccc2cccc3c2c1CC1(C3=O)S(=O)(=O)OCCOS1(=O)=O | > 100 µM | > 100 µM | > 100 µM | > 100 µM | > 100 µM | > 100 µM | > 100 µM | > 100 µM | > 100 µM | > 100 µM
COc1ccc(CCC(=O)OC(C)[C@H](NC(=O)[C@@H](CC(C)C)N(C)C(=O)[C@@H]2CCCN2C(=O)C(C)O)C(=O)OCc2ccccc2)cc1 (stereo not given in full) (H-[ξLac]P[dNMeL][Thr(3ξ)](Propanoyl(3-(4-MeO-Ph)))-OBn) | > 100 µM | > 100 µM | 73.4 µM | > 100 µM | 79.4 µM | > 100 µM | > 100 µM | > 100 µM | 39 µM | > 100 µM
Nc1nc(N)c2nnn(C[C@H]3CC[C@@H](CO)C3)c2n1 | > 100 µM | > 100 µM | > 100 µM | > 100 µM | > 100 µM | > 100 µM | > 100 µM | > 100 µM | > 100 µM | > 100 µM
Clc1ccc2c(NCCNc3ccnc4cc(Cl)ccc34)ccnc2c1 | 34.5 µM | 32.1 µM | 28.3 µM | 32.2 µM | 32.5 µM | 43.1 µM | 26.2 µM | 33.2 µM | 30.1 µM | 34.8 µM
CC(NC(=O)C(N)CC(=O)O)NC(=O)N1CCOCC1 (stereo not given) | > 100 µM | > 100 µM | > 100 µM | > 100 µM | > 100 µM | > 100 µM | > 100 µM | > 100 µM | > 100 µM | > 100 µM
CC(C)CC1[C@@H](OCc2ccccc2)COS(=O)(=O)N1Cc1ccccc1 (stereo not given in full) | > 100 µM | > 100 µM | > 100 µM | > 100 µM | > 100 µM | > 100 µM | > 100 µM | 75.2 µM | > 100 µM | > 100 µM
O=C1OC(C2OC(=O)c3cc(O)c(O)c(O)c3-c3c(O)c(O)c4oc(=O)c5c(c(O)c(O)c6oc(=O)c3c4c65)-c3c(cc(O)c(O)c3O)C(=O)OCC2O)C2OC(=O)c3c(c(O)c(O)c(O)c3[C@H]2O)-c2c1cc(O)c(O)c2O (stereo not given in full) | > 100 µM | 57.6 µM | 67.5 µM | > 100 µM | 63 µM | 47.7 µM | 68.5 µM | 41.2 µM | 36.6 µM | 22.4 µM
CCn1c(-c2ccc(C)cc2)cs/c1=N\C(P(=O)(O)O)P(=O)(O)O | > 100 µM | > 100 µM | > 100 µM | > 100 µM | > 100 µM | > 100 µM | > 100 µM | > 100 µM | > 100 µM | > 100 µM
O=S(=O)(O)c1ccc2c(N=Nc3ccccc3Cl)c(O)ccc2c1 | > 100 µM | > 100 µM | > 100 µM | > 100 µM | > 100 µM | > 100 µM | > 100 µM | > 100 µM | > 100 µM | > 100 µM
